Each block holds one molecule with its values, some of them ahead of it. Calls of active or inactive are those of the source. The rule behind the calls is not given here.
How the values were obtained:
[1] = biological target: T1, Voltage-dependent T-type calcium channel subunit alpha-1H (Homo sapiens, UniProt O95180); experiment: Inhibition of human Cav3.2 expressed in tsA-201 cells by patch clamp electrophysiology; type: cell-based
[2] = biological target: T1, Voltage-dependent T-type calcium channel subunit alpha-1H; experiment: Inhibition of human Cav3.2 expressed in tsA-201 cells at 10uM by patch clamp electrophysiology; type: cell-based
[3] = biological target: T2, Voltage-dependent T-type calcium channel subunit alpha-1G (Homo sapiens, UniProt O43497); experiment: Inhibition of human Cav3.1 expressed in tsA-201 cells at 10uM by patch clamp electrophysiology; type: cell-based
[4] = biological target: T3, Voltage-dependent T-type calcium channel subunit alpha-1I (Homo sapiens, UniProt Q9P0X4); experiment: Inhibition of human Cav3.3 expressed in tsA-201 cells by patch clamp electrophysiology; type: cell-based
T3 sequence (Q9P0X4 whole entry): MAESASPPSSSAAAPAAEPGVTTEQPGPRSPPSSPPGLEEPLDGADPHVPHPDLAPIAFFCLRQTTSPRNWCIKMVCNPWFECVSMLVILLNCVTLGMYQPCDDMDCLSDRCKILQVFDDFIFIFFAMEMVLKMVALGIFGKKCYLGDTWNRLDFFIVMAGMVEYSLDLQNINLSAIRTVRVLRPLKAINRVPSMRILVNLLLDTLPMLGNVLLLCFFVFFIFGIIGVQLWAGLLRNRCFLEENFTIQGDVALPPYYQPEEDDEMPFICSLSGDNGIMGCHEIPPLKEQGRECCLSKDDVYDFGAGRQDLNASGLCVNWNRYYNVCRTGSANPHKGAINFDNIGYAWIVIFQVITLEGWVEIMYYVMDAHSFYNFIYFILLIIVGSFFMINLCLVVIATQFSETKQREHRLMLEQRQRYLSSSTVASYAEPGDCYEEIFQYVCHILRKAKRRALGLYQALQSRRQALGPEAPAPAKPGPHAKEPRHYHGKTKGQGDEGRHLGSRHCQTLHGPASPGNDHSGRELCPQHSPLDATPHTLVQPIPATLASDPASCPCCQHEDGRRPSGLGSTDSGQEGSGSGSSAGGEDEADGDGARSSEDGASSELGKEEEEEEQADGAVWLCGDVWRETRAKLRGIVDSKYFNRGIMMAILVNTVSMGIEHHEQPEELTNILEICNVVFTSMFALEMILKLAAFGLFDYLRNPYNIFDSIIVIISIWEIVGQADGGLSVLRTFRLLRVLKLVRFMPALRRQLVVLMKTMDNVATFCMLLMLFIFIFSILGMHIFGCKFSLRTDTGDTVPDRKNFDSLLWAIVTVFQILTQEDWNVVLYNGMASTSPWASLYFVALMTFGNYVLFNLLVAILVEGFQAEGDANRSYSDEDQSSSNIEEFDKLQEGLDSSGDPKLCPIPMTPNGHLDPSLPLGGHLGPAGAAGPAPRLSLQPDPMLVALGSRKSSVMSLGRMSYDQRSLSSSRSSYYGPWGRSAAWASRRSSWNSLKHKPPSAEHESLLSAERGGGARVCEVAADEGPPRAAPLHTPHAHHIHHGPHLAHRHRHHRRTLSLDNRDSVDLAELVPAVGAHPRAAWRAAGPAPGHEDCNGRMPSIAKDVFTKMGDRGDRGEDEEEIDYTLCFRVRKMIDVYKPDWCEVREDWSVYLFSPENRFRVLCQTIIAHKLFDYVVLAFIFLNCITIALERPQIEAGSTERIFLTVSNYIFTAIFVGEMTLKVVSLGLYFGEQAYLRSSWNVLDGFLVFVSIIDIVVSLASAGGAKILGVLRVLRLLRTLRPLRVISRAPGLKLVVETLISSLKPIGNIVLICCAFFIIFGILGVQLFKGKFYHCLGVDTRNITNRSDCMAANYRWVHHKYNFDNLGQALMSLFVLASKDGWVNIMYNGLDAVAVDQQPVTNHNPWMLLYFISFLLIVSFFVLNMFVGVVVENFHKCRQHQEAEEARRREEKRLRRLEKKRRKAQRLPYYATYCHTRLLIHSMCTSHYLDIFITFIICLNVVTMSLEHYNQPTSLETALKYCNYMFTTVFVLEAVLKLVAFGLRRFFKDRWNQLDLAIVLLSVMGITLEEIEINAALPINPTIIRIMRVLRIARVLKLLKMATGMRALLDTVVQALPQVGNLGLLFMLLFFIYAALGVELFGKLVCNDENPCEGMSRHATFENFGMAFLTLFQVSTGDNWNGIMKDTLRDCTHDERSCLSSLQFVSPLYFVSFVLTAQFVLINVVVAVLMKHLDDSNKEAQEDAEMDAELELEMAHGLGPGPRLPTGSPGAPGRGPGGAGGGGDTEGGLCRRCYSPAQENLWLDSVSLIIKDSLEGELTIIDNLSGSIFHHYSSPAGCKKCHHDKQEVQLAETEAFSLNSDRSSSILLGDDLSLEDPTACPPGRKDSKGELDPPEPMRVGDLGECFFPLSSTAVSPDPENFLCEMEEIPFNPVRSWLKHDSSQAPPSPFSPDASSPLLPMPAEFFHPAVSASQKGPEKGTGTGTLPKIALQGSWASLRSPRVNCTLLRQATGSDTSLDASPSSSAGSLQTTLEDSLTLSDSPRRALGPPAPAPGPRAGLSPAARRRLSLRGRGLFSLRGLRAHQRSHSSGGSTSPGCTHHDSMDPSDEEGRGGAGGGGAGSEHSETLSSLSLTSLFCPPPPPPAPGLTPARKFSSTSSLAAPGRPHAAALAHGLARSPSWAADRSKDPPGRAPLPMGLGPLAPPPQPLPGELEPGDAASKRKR

[5] = biological target: T2, Voltage-dependent T-type calcium channel subunit alpha-1G; experiment: Inhibition of human Cav3.1 expressed in tsA-201 cells by patch clamp electrophysiology; type: cell-based
A549 = experiment: Cytotoxicity against human A549 cells assessed as reduction in cell viability after 48 hrs by MTT assay; type: functional, cell-based; conditions: A549, 48 h
HCT-116 = experiment: Cytotoxicity against human HCT116 cells assessed as reduction in cell viability after 48 hrs by MTT assay; type: functional, cell-based; conditions: HCT-116, 48 h
[6] = biological target: T3, Voltage-dependent T-type calcium channel subunit alpha-1I; experiment: Inhibition of human Cav3.3 expressed in tsA-201 cells at 10uM by patch clamp electrophysiology; type: cell-based

T1 sequence (O95180 whole entry): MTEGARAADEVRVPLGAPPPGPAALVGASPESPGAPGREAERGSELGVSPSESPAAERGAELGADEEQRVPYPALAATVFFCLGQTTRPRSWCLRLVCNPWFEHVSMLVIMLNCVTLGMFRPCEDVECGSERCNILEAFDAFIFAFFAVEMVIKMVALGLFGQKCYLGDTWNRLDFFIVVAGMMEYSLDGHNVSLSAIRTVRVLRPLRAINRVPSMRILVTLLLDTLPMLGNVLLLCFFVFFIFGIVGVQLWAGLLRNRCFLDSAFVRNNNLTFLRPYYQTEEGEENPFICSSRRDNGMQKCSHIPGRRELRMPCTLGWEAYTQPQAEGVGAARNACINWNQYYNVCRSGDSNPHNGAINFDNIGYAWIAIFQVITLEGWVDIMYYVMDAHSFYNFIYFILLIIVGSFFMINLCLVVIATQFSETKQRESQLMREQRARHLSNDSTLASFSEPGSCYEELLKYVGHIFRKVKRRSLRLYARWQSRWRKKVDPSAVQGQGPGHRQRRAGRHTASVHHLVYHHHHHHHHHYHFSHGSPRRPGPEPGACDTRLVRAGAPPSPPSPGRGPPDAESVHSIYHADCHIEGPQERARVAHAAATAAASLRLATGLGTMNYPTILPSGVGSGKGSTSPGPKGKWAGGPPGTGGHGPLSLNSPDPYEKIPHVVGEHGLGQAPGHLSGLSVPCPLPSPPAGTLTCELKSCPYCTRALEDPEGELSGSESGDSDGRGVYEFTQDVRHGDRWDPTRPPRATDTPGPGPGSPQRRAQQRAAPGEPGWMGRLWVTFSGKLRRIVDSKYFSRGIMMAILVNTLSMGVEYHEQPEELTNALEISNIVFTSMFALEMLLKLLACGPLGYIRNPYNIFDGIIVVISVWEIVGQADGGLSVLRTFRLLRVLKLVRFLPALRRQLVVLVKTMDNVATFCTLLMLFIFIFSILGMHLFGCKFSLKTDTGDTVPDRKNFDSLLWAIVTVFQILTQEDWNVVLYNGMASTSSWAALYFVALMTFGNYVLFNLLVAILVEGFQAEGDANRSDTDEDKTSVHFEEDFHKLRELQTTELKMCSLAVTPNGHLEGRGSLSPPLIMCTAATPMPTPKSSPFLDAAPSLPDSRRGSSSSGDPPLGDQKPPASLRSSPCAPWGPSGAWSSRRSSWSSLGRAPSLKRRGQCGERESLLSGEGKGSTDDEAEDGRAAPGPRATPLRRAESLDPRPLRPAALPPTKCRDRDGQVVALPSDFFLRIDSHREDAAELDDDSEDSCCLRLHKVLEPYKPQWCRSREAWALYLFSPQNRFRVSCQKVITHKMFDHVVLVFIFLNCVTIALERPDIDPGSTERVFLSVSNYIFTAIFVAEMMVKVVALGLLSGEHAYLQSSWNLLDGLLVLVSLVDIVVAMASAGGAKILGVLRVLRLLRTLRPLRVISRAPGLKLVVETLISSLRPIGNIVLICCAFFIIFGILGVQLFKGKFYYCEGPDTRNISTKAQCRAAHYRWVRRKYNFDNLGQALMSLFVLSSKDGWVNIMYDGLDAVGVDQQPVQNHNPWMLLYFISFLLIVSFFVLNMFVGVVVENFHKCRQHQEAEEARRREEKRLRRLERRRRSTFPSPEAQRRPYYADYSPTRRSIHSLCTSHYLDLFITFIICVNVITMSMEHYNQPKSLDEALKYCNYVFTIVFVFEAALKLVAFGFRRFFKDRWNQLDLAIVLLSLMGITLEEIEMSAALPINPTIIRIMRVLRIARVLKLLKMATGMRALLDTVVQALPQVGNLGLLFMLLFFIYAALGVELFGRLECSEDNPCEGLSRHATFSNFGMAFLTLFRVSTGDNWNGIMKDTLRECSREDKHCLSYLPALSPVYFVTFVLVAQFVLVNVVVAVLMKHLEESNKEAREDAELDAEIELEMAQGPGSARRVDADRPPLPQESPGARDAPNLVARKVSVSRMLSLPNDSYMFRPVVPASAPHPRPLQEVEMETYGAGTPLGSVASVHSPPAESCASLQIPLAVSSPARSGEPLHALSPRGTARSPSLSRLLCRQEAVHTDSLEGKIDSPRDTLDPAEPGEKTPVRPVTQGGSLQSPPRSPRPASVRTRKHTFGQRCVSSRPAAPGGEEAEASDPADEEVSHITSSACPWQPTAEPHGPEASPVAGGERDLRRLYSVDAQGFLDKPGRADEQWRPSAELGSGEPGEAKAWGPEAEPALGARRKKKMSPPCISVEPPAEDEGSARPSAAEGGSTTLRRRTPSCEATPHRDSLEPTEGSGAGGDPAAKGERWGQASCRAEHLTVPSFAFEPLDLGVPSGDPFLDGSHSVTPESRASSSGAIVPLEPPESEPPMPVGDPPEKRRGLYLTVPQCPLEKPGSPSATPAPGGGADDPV

Structure (SMILES): O=C(CC1c2ccccc2N=C(SCCCCCN2CCCC2)N1c1ccc(-c2ccccc2)cc1)NCc1ccccc1 (stereo unspecified)
- IC50 [1]: 6.9 µM
- inhibition [2]: 73.1%
- inhibition [3]: 93.9%
- IC50 ([4]; read-out: IC50): 0.81 µM
- IC50 [5]: 0.66 µM
- IC50 (A549): 14.9 µM
- IC50 (HCT-116): 5.5 µM
- inhibition [6]: 92.7%

Structure (SMILES): CN(C)CCCCCSC1=Nc2ccccc2C(CC(=O)NCc2ccc(F)cc2)N1c1ccccc1 (stereo unspecified)
- IC50 [1]: 832 µM
- inhibition [2]: 7%
- inhibition [3]: 26.7%
- IC50 [4]: Not Active
- IC50 (A549): 36.8 µM
- IC50 (HCT-116): 38.8 µM
- inhibition [6]: inactive

Structure (SMILES): O=C(CC1c2ccccc2N=C(SCCCCCN2CCCC2)N1c1ccccc1)NCc1ccccc1 (stereo unspecified)
- IC50 [1]: 7.71 µM
- inhibition [2]: 61.6%
- inhibition [3]: 60.4%
- IC50 ([4]; read-out: IC50): 6.19 µM
- IC50 [5]: 77 µM
- IC50 (A549): 98.1 µM
- IC50 (HCT-116): 31.3 µM
- inhibition [6]: 78.3%

Structure (SMILES): O=C(CC1c2ccccc2N=C(SCCCCCN2CCCC2)N1c1ccc(-c2ccccc2)cc1)NCc1ccc(F)cc1 (stereo unspecified)
- IC50 [1]: 276 µM
- inhibition [2]: 69%
- inhibition [3]: 51.5%
- IC50 ([4]; read-out: IC50): 13.6 µM
- IC50 [5]: 15 µM
- IC50 (A549): 19.8 µM
- IC50 (HCT-116): 6.2 µM
- inhibition [6]: 55.9%

Structure (SMILES): CN(C)CCCCCN(C)C1=Nc2ccccc2C(CC(=O)NCc2ccccc2)N1c1ccc(-c2ccccc2)cc1 (stereo unspecified)
- inhibition [2]: 89.3%
- IC50 (HCT-116): 5.6 µM

Structure (SMILES): CN(C)CCCCCSC1=Nc2ccccc2C(CC(=O)NCc2ccccc2)N1c1ccccc1 (stereo unspecified)
- IC50 [1]: 13.8 µM
- inhibition [2]: 51.8%
- inhibition [3]: 46.5%
- IC50 ([4]; read-out: IC50): 3.2 µM
- IC50 [5]: 18.5 µM
- IC50 (A549): 138 µM
- IC50 (HCT-116): 38.8 µM
- inhibition [6]: 76%

Structure (SMILES): O=C(CC1c2ccccc2N=C(SCCCCCN2CCCC2)N1c1ccccc1)NCc1ccc(F)cc1 (stereo unspecified)
- IC50 [1]: 57.4 µM
- inhibition [2]: 40%
- inhibition [3]: 60.1%
- IC50 [5]: 13.5 µM
- IC50 (A549): 89.9 µM
- IC50 (HCT-116): 27.1 µM
- inhibition [6]: 22.1%

Now from value to molecule, other results behind:

- IC50 [1]: 3.14 µM
- inhibition [2]: 83.1%
- inhibition [3]: 31%
- IC50 ([4]; read-out: IC50): 6.1 µM
- IC50 [5]: 27.4 µM
- inhibition [6]: 69.3%
Structure (SMILES): CN(C)CCCCCSC1=Nc2ccccc2C(CC(=O)NCc2ccc(F)cc2)N1c1ccc(-c2ccccc2)cc1 (stereo unspecified)
- IC50 (A549): 5 µM
- IC50 (HCT-116): 6.4 µM

- IC50 [1]: 2.76 µM
- inhibition [2]: 84.8%
- inhibition [3]: 96.2%
- IC50 ([4]; read-out: IC50): 0.96 µM
- IC50 [5]: 0.4 µM
- inhibition [6]: 92%
Structure (SMILES): CN(C)CCCCCSC1=Nc2ccccc2C(CC(=O)NCc2ccc(F)cc2)N1c1ccc(-c2ccc(F)cc2)cc1 (stereo unspecified)
- IC50 (A549): 11.3 µM
- IC50 (HCT-116): 9.3 µM

- IC50 [1]: 4.88 µM
- inhibition [2]: 76.6%
- inhibition [3]: 83.9%
- IC50 ([4]; read-out: IC50): 19.8 µM
- IC50 [5]: 12.6 µM
- inhibition [6]: 35.1%
Structure (SMILES): O=C(CC1c2ccccc2N=C(SCCCCCN2CCCC2)N1c1ccc(-c2ccc(F)cc2)cc1)NCc1ccc(F)cc1 (stereo unspecified)
- IC50 (A549): 12.6 µM
- IC50 (HCT-116): 7.7 µM

- IC50 [1]: 0.26 µM
- inhibition [2]: 97.5%
- inhibition [3]: 83.9%
- IC50 ([4]; read-out: IC50): 5.1 µM
- IC50 [5]: 2.18 µM
- inhibition [6]: 68.2%
Structure (SMILES): O=C(CC1c2ccccc2N=C(SCCCCCN2CCCC2)N1c1ccc(-c2ccc(F)cc2)cc1)NCc1ccccc1 (stereo unspecified)
- IC50 (A549): 17.8 µM
- IC50 (HCT-116): 12.5 µM

- IC50 [1]: 4.18 µM
- inhibition [2]: 75.6%
- inhibition [3]: 97.6%
- IC50 ([4]; read-out: IC50): 9.06 µM
- IC50 [5]: 0.25 µM
- inhibition [6]: 66.7%
Structure (SMILES): CN(C)CCCCCSC1=Nc2ccccc2C(CC(=O)NCc2ccccc2)N1c1ccc(-c2ccc(F)cc2)cc1 (stereo unspecified)
- IC50 (A549): 17.6 µM
- IC50 (HCT-116): 9.2 µM

- IC50 [1]: 2.4 µM
- inhibition [2]: 83.9%
- inhibition [3]: 76.2%
- IC50 ([4]; read-out: IC50): 1.76 µM
- IC50 [5]: 7.77 µM
- inhibition [6]: 85.6%
Structure (SMILES): CN(C)CCCCCSC1=Nc2ccccc2C(CC(=O)NCc2ccccc2)N1c1ccc(-c2ccccc2)cc1 (stereo unspecified)
- IC50 (A549): 18.1 µM
- IC50 (HCT-116): 9.6 µM

— ChEMBL document CHEMBL4622846, “Synthesis and cytotoxic effects of 2-thio-3,4-dihydroquinazoline derivatives as novel T-type calcium channel blockers” (Bioorg Med Chem, 2020)
